Assay results from patent publication US6703536B2, “Disposable absorbent article having a skin care composition containing an enzyme inhibitor” (The Procter & Gamble Company, priority 1998, dated 2004).
Counter-ions that a name gives are not always drawn. Like-named read-outs stand apart in the source and are kept apart here. Square brackets hold non-standard residues; d marks the D form. Peptide text beside a SMILES is read from it. * marks the point of attachment. Sta = CC(C)C[C@H](N)[C@@H](O)CC(=O)O; Isovaleryl = CC(C)CC(=O)*

T1: purified leucine aminopeptidase (LAP) (Sus scrofa, UniProt P15145)
T1 construct: purchased Sigma, St. Louis, Mo; L5006
T1 sequence (P15145 1-963): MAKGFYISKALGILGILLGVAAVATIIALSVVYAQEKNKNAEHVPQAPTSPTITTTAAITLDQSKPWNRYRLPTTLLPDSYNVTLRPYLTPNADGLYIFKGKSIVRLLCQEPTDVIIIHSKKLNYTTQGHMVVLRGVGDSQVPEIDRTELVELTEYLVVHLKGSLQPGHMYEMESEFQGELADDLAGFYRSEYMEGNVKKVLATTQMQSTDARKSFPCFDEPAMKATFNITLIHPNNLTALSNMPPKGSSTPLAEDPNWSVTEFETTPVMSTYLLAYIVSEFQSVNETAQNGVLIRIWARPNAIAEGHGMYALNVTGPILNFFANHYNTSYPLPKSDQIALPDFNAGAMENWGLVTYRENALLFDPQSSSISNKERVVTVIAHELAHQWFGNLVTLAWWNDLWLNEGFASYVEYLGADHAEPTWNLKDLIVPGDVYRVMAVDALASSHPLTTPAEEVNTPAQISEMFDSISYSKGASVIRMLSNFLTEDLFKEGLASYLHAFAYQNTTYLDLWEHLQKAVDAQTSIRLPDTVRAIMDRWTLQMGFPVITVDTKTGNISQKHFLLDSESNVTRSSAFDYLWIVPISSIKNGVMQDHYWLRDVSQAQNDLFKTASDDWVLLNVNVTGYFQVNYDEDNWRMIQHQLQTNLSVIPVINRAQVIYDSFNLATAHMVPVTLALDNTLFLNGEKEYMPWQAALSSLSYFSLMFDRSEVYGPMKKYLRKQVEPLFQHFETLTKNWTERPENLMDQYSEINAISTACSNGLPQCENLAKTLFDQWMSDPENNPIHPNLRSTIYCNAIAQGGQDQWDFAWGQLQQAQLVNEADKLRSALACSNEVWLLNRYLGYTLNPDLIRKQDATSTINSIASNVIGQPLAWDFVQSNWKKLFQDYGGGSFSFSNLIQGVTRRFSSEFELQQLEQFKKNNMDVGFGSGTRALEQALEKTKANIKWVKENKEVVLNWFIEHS

B1: Soybean trypsin inhibitor: plant-derived trypsin inhibitor (protein, UniProt P01070 25-205, looked up)
Trypsin inhibitor A: DFVLDNEGNPLENGGTYYILSDITAFGGIRAAPTGNERCPLTVVQSRNELDKGIGTIISSPYRIRFIAEGHPLSLKFDSFAVIMLCVGIPTEWSVVEDLPEGPAVKIGENKDAMDGWFRLERVSDDEFNNYKLVFCPQQAEDDKCGDIGISIDHDDGTRRLVVSKNKPLVVQFQKLDKESL

Legend:
[1] = biological target: LAP activity in feces; test: Fecal LAP Activity (Specific Fecal Enzyme Method); type: biochemical; conditions: pooled infant fecal suspension, pH 7.2, 25° C.; read-out: IC50 Specific Fecal Enzyme Methods LAP
Excerpt: The following is a general description of a method for obtaining a sample of feces suitable for use in Fecal Protease Methods. However, one skilled in the art will be able to adapt the method to obtain appropriate samples of feces suitable for use in any of the Specific Fecal Protease Methods listed below (i.e., lipase, urease, and amylase) without undue experimentation.
Pooled infant feces (at least five different samples) are collected in a manner to keep them free of urine and contamination and mixed with water to obtain a weight by weight (w/w) mixture (e.g., 1:50 w/w). This mixture is then mixed thoroughly to obtain a homogeneous suspension by homogenization or sonication. […] (Also, to ensure complete linearity the final absorbance should never exceed 1.5 OD405 units). If the activity of the pooled infant feces is outside this range, it is not possible to accurately determine IC50 values for putative protease inhibitors. However, the range of enzyme activity may be adjusted by increasing or decreasing the dilution factor accordingly for each enzyme. If this is not possible, a different group of subjects should be used to obtain the sample pool.
To test the efficacy of protease inhibitors against LAP activity in feces, inhibitor and LAP buffer (50 mM sodium phosphate, pH 7.2) are added in a cuvette to obtain a final volume of 0.95 mL. To this mixture, 0.03 mL of substrate (6 mM L-Leucine-p-nitroanilide) is added to the cuvette. The cuvette is mixed by inversion and incubated at 25° C. for 5 minutes. A volume of 0.02 mL of fecal suspension is added to the cuvette, mixed and the absorbance at 405 nm minus the absorbance at 490 nm measured over 5 minutes at 25° C. The rate of substrate cleavage in the presence of inhibitor (vi) is the slope of a plot relating the excess absorbance (i.e., the absorbance at 405 nm minus the absorbance at 490 nm) versus time. The same procedure is repeated without the putative inhibitor. The rate of substrate cleavage in the absence of inhibitor (v) is the slope of a plot relating the excess absorbance versus time. The rates, vi and v, and the inhibitor concentration [I] are used to calculate IC50 according to the equation expressed above.

[2] = biological target: T1, purified leucine aminopeptidase (LAP); test: Purified Leucine Aminopeptidase Activity (Purified Enzyme Method); type: biochemical
Procedure: The IC50 is calculated according to the equation IC50=[I]/[(v/vi)−1], where [I] is the inhibitor concentration tested, v is the rate of substrate cleavage in the absence of the inhibitor and vi is the rate of substrate cleavage in the presence of the inhibitor. As described further below, the IC50 of an enzyme inhibitor according to the invention may be measured by a Purified Enzyme method, by a Specific Fecal Enzyme method or by a General Fecal Enzymes method.
Standard in vitro assays for enzyme activity, and inhibition of enzyme activity, are well known. The reagents used to conduct these tests are generally commercially available. In general, a simple system comprises an enzyme-specific substrate which, when hydrolyzed by the enzyme, produces a colored product. The activity of the enzyme is measured spectrophotometrically as the degree of development of the colored product (i.e., the rate of color change) over a predetermined time period. […] The following are exemplary methods that may be utilized to determine the inhibitory activity of enzyme inhibitors against A) purified enzymes known to exist in feces, B) specific enzyme activity in the feces itself and C) general enzyme activity in the feces itself. These methods are not intended to be limiting, however, as other methods, other substrates, other inhibitors and the like may be used to test activity against a wide variety of fecal enzymes, as known to one skilled in the art.
For each of the following exemplary Purified Enzyme Methods, Specific Fecal Enzyme Methods, General Fecal Enzymes Method, Purified Lipase activity assay, Fecal Lipase activity assay, Purified Urease activity assay, Fecal Urease activity assay, Purified Amylase activity assay, and Fecal Amylase activity assay, the IC50 for each inhibitor tested may be calculated according to the following equation: […]
where [I] is the inhibitor concentration tested, v is the rate of substrate cleavage in the absence of inhibitor and vi is the rate of substrate cleavage in the presence of inhibitor.
In the methods, v and vi are measured as the change in absorbance (optical density, OD) at a given wavelength/time (e.g., minutes).
To test the efficacy of protease inhibitors against purified leucine aminopeptidase (LAP), 0.05 mL of a putative inhibitor and 0.125 mL of 0.06 U/mL LAP (e.g., Sigma, St. Louis, Mo., catalogue no. L5006) in LAP buffer (50 mM sodium phosphate, pH 7.2) are added to a microcuvette. The cuvette is incubated at 25° C. for 10 minutes. […] The same procedure is repeated without the putative inhibitor. […] The rates, vi and v, and the inhibitor concentration [I] are used to calculate IC50 according to the equation expressed above.

[3] = purified leucine aminopeptidase, L-Leucine-p-nitroaniline, pH 7.2, 25° C., read-out: IC50 Purified Enzyme Methods LAP

Molecule	IC50 [1]	IC50 [2, 3]	IC50 [2]
CC(C)C[C@H](NC(=O)[C@@H](NC(=O)N[C@@H](Cc1ccccc1)C(=O)O)[C@@H]1CCN=C(N)N1)C(=O)N[C@H](C=O)Cc1ccccc1 [Chymostatin]	> 500 µM	> 500 µM	–
CC1(C)[C@@H](O[C@H]2O[C@H](C(=O)O)[C@@H](O)[C@H](O)[C@H]2O[C@@H]2O[C@H](C(=O)O)[C@@H](O)[C@H](O)[C@H]2O)CC[C@]2(C)[C@H]3C(=O)C=C4[C@@H]5C[C@@](C)(C(=O)O)CC[C@]5(C)CC[C@@]4(C)[C@]3(C)CC[C@@H]12 [Glycyrrhizic Acid]	> 300 µM	> 500 µM	–
N=C(N)c1ccc(OCCCCCCOc2ccc(C(=N)N)cc2)cc1 [Hexamidine diisethionate]	130 µM	256 µM	–
CC(=O)N[C@@H](CC(C)C)C(=O)N[C@@H](CC(C)C)C(=O)N[C@H](C=O)CCCNC(=N)N [Leupeptin]	> 500 µM	> 500 µM	–
CC(C)CC(=O)N[C@H](C(=O)N[C@H](C(=O)N[C@@H](CC(C)C)[C@@H](O)CC(=O)N[C@@H](C)C(=O)N[C@@H](CC(C)C)[C@@H](O)CC(=O)O)C(C)C)C(C)C [Pepstatin A] (Isovaleryl-VV[Sta]A[Sta]-OH)	> 500 µM	> 500 µM	–
Cc1ccc(S(=O)(=O)N[C@@H](CCCCN)C(=O)CCl)cc1 [TLCK, L-1-chloro-3-[4-tosylamido]-7-amino-2-heptanone-HCl]	> 500 µM	–	> 500 µM
N=C(N)c1ccc(N)cc1 [p-Amino-benzamidine]	> 500 µM	> 500 µM	–
Aprotinin	> 20 µM	> 20 µM	–
B1	> 20 µM	> 10 µM	–
